From patent US20230413819A1, “METHODS FOR CONTROLLING FLEA AND TICK INFESTATIONS IN A MAMMAL” (In the Bowl Animal Health, Inc., priority 2021, published 2023)
Where two headings read alike, the source gives them in different places.

Legend:
[1] = Average plasma concentration of mivorilaner, various daily oral doses (Examples 5 and 11); assay type: in vivo, dogs; settings: dog, Group 5, 1.0 mg/kg/day oral, fed
Ctenocephalides felis = assay: Efficacy of isoxazoline (mivorilaner) per os to dogs against Ctenocephalides felis (Example 10); assay type: in vivo; settings: 0.75 mg/kg/day oral
Source text: Methods: A pool of 14 dogs are to be preliminarily infested with ˜100 unfed adult C. felis in order to identify dogs that can suitably sustain a reliable infestation rate, defined as approximately 50% fleas being live at the end of a 48-hour period. The 12 dogs with the highest live flea counts are to be selected for inclusion in the study. The dogs are to be divided into a control group and a treatment group.
The dogs are to be housed individually during the study period and are to be fed a commercial dry dog food ration with ad libitum access to water.
Each dog in the treatment group is to receive by mouth a liquid formulation of isoxazoline. The dosage of 0.75 mg/kg is to be administered to the dogs on each of days 0-29.
Dogs in the control group are not to receive isoxazoline or any other flea control treatment. Each dog in the treatment group is to be offered its daily ration (dry food) and the individual doses of liquid formulation are to be administered after the individual dog has eaten at least 25% of its total daily ration. After receiving the dose of isoxazoline, the dogs are to be allowed to continue eating. This mimics incorporating the isoxazoline in feed. […]
Results: referring now to FIG. 16, the arithmetic mean efficacy in reduction of live adult flea counts is shown. The Percent Efficacy is calculated according to the formula: […]

[2] = Plasma concentration of mivorilaner, 0.75 mg/kg daily oral (Examples 4 and 10); assay type: in vivo, dogs; settings: dog, 0.75 mg/kg/day
[3] = Average plasma concentration of mivorilaner, medicated daily feed (Example 9); assay type: in vivo, dogs
Protocol: Each dog in a treatment group (test groups 2-4) is to receive a medicated daily feed from study days 0-49. The medicated daily feed is to be offered to the dogs for 1 hour on each of days 0-49 according to test groups listed in TABLE 11.

O=C(CNC(=O)c1sc(C2=NO[C@@](c3cc(Cl)c(F)c(Cl)c3)(C(F)(F)F)C2)c2c1CCC2)NCC(F)F [mivorilaner, 3-[(5S)-5-(3,5-dichloro-4-fluorophenyl)-5-(trifluoromethyl)-4,5-dihydroisoxazol-3-yl]-N-[2-[(2,2-difluoroethyl)amino]-2-oxoethyl]-5,6-dihydro-4H-cyclopenta[c]thiophene-1-carboxamide]
concentration at 720 h ([1]; 720 h after initial dose): 3.76 µg/mL
concentration at 888 h ([1]; 888 h after initial dose): 3.86 µg/mL
concentration at 1056 h ([1]; 1056 h after initial dose): 4.26 µg/mL
concentration at 1224 h ([1]; 1224 h after initial dose): 4.84 µg/mL
concentration at 1440 h ([1]; 1440 h after initial dose): 4.14 µg/mL
day after initial administration by which the treatment is effective (reduction of live adult flea counts) (Ctenocephalides felis): ≤ 4 days
concentration at 3 day ([2]; 0.75 mg/kg/day oral days 0-29, Day 3, read-out: Mivorilaner Concentration, Average of 6 canines): 0.674 µg/mL
concentration at 3 day ([2]; 0.75 mg/kg/day oral days 0-29, Day 3, read-out: Mivorilaner Concentration, individual canines): 0.648 µg/mL
concentration at 7 day ([2]; 0.75 mg/kg/day oral days 0-29, Day 7, read-out: Mivorilaner Concentration, Average of 6 canines): 1.45 µg/mL
concentration at 7 day ([2]; 0.75 mg/kg/day oral days 0-29, Day 7, read-out: Mivorilaner Concentration, individual canines): 1.62 µg/mL
concentration at 14 day ([2]; 0.75 mg/kg/day oral days 0-29, Day 14, read-out: Mivorilaner Concentration, Average of 6 canines): 2.1 µg/mL
concentration at 14 day ([2]; 0.75 mg/kg/day oral days 0-29, Day 14, read-out: Mivorilaner Concentration, individual canines): 2.53 µg/mL
concentration at 21 day ([2]; 0.75 mg/kg/day oral days 0-29, Day 21, read-out: Mivorilaner Concentration, Average of 6 canines): 2.73 µg/mL
concentration at 21 day ([2]; 0.75 mg/kg/day oral days 0-29, Day 21, read-out: Mivorilaner Concentration, individual canines): 2.82 µg/mL
concentration at 30 day ([2]; 0.75 mg/kg/day oral days 0-29, Day 30, read-out: Mivorilaner Concentration, Average of 6 canines): 2.63 µg/mL
concentration at 37 day ([2]; 0.75 mg/kg/day oral days 0-29, Day 37, read-out: Mivorilaner Concentration, Average of 6 canines): 2.02 µg/mL
concentration at 37 day ([2]; 0.75 mg/kg/day oral days 0-29, Day 37, read-out: Mivorilaner Concentration, individual canines): 2.41 µg/mL
average plasma concentration of isoxazoline (mivorilaner) ([3]; Group 2, 106 mg/kg feed (anticipated 1 mg/kg daily), 1 hr): 49.98
average plasma concentration of isoxazoline (mivorilaner) ([3]; Group 2, 106 mg/kg feed (anticipated 1 mg/kg daily), 3 hr): 292.00
average plasma concentration of isoxazoline (mivorilaner) ([3]; Group 2, 106 mg/kg feed (anticipated 1 mg/kg daily), 6 hr): 539.00
average plasma concentration of isoxazoline (mivorilaner) ([3]; Group 2, 106 mg/kg feed (anticipated 1 mg/kg daily), 10 hr): 505.40
average plasma concentration of isoxazoline (mivorilaner) ([3]; Group 2, 106 mg/kg feed (anticipated 1 mg/kg daily), 24 hr): 458.60
average plasma concentration of isoxazoline (mivorilaner) ([3]; Group 2, 106 mg/kg feed (anticipated 1 mg/kg daily), 48 hr): 771.83
average plasma concentration of isoxazoline (mivorilaner) ([3]; Group 2, 106 mg/kg feed (anticipated 1 mg/kg daily), 96 hr): 1570.50
average plasma concentration of isoxazoline (mivorilaner) ([3]; Group 2, 106 mg/kg feed (anticipated 1 mg/kg daily), 168 hr): 2156.67
average plasma concentration of isoxazoline (mivorilaner) ([3]; Group 2, 106 mg/kg feed (anticipated 1 mg/kg daily), 240 hr): 3003.33
average plasma concentration of isoxazoline (mivorilaner) ([3]; Group 2, 106 mg/kg feed (anticipated 1 mg/kg daily), 336 hr): 3290.00
average plasma concentration of isoxazoline (mivorilaner) ([3]; Group 3, 106 mg/kg feed (anticipated 1 mg/kg daily), 1 hr): 40.41
average plasma concentration of isoxazoline (mivorilaner) ([3]; Group 3, 106 mg/kg feed (anticipated 1 mg/kg daily), 3 hr): 264.83
average plasma concentration of isoxazoline (mivorilaner) ([3]; Group 3, 106 mg/kg feed (anticipated 1 mg/kg daily), 6 hr): 467.50
average plasma concentration of isoxazoline (mivorilaner) ([3]; Group 3, 106 mg/kg feed (anticipated 1 mg/kg daily), 10 hr): 419.17
average plasma concentration of isoxazoline (mivorilaner) ([3]; Group 3, 106 mg/kg feed (anticipated 1 mg/kg daily), 24 hr): 435.17
average plasma concentration of isoxazoline (mivorilaner) ([3]; Group 3, 106 mg/kg feed (anticipated 1 mg/kg daily), 48 hr): 781.83
average plasma concentration of isoxazoline (mivorilaner) ([3]; Group 3, 106 mg/kg feed (anticipated 1 mg/kg daily), 96 hr): 1596.67
average plasma concentration of isoxazoline (mivorilaner) ([3]; Group 3, 106 mg/kg feed (anticipated 1 mg/kg daily), 168 hr): 2406.67
average plasma concentration of isoxazoline (mivorilaner) ([3]; Group 3, 106 mg/kg feed (anticipated 1 mg/kg daily), 240 hr): 3026.67
average plasma concentration of isoxazoline (mivorilaner) ([3]; Group 3, 106 mg/kg feed (anticipated 1 mg/kg daily), 336 hr): 3516.67
average plasma concentration of isoxazoline (mivorilaner) ([3]; Group 4, 318 mg/kg feed (anticipated 3 mg/kg daily), 1 hr): 143.75
average plasma concentration of isoxazoline (mivorilaner) ([3]; Group 4, 318 mg/kg feed (anticipated 3 mg/kg daily), 3 hr): 846.50
average plasma concentration of isoxazoline (mivorilaner) ([3]; Group 4, 318 mg/kg feed (anticipated 3 mg/kg daily), 6 hr): 1265.67
average plasma concentration of isoxazoline (mivorilaner) ([3]; Group 4, 318 mg/kg feed (anticipated 3 mg/kg daily), 10 hr): 1198.17
average plasma concentration of isoxazoline (mivorilaner) ([3]; Group 4, 318 mg/kg feed (anticipated 3 mg/kg daily), 24 hr): 1021.17
average plasma concentration of isoxazoline (mivorilaner) ([3]; Group 4, 318 mg/kg feed (anticipated 3 mg/kg daily), 48 hr): 2011.67
average plasma concentration of isoxazoline (mivorilaner) ([3]; Group 4, 318 mg/kg feed (anticipated 3 mg/kg daily), 96 hr): 3928.33
average plasma concentration of isoxazoline (mivorilaner) ([3]; Group 4, 318 mg/kg feed (anticipated 3 mg/kg daily), 168 hr): 6461.67
average plasma concentration of isoxazoline (mivorilaner) ([3]; Group 4, 318 mg/kg feed (anticipated 3 mg/kg daily), 240 hr): 8696.67
average plasma concentration of isoxazoline (mivorilaner) ([3]; Group 4, 318 mg/kg feed (anticipated 3 mg/kg daily), 336 hr): 11600.00
